From PMC11078216, “Discovery of potent and selective activity-based probes (ABPs) for the deubiquitinating enzyme USP30” (RSC Chemical Biology, 2024)
Values belong to the compound of their own block, whether it stands above or below them.

What was measured:
Assay in all cases: ABPP chemical proteomics (LC-MS/MS) in HEK293T cells
Type in all cases: cell-based
ISOC2 = molecular target: T1, ISOC2 (Homo sapiens, UniProt Q96AB3)
T1 construct: endogenous in cells; host or cells: HEK293T
T1 sequence (Q96AB3 1-205): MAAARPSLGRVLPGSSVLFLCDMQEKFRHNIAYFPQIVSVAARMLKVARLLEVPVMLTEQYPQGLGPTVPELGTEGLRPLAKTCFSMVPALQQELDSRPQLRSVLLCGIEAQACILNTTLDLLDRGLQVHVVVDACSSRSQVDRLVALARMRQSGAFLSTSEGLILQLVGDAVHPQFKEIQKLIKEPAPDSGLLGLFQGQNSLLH
Method: (§1) To explore the selectivity of IMP-2587 and IMP-2586 across the whole proteome, we performed quantitative activity-based protein profiling (ABPP) in HEK293T cells following treatment with IMP-2587 or IMP-2586 (Fig. 3a). After ABP incubation, cells were lysed, and probe-labelled proteins were ligated to biotinylated capture reagents.[27] […] USP30 was outcompeted by corresponding parent inhibitors for each ABP (Fig. 5b and d and Tables S3 and S5, ESI ^†), confirming the high potency and rapid engagement of IMP-2587 and IMP-2586 in cells. […] DESI1 and DESI2 are small ubiquitin-related modifier (SUMO) proteases,[3,29–32] and IMP-2587 and IMP-2586 may offer a starting point for future development of DESI ABPs. […]
(§2) d) Live cell probe incubation, lysate click chemistry and precipitation 6-well HEK293T cells were incubated with media containing compounds ABP 2 and ABP 4 at indicated concentrations for 1 h at 37 °C. The cells were washed with PBS and lysed with lysis buffer (50 μL (1% (v/v) Triton X-100, 0.1% (w/v) sodium dodecyl sulfate (SDS), EDTA-free complete protease inhibitor cocktail (1×, Roche) in PBS on ice for 10 min. The lysates were scraped and transferred to corresponding Lo-Bind Eppendorfs. Each lysate was sonicated for 1 minute, and the samples centrifuges at 5,000 x g at 4 °C for 5 minutes to pellet insoluble cellular debris. The supernatant was collected, and protein concentration was determined using the DC Protein Assay (Bio-Rad) as per manufacturer’s instructions, and normalised to lowest concentrated sample (e.g. 1 mg/mL, using lysis buffer). The following “click mixture” was prepared separately, preparing 6 μL for every 100 μL of […]
(§3) Capture reagent (AzRB/AzT for ABP 2, YnT/YnB for ABP 4 10 mM in DMSO, 1 vol; final concentration […]
(§4) CuSO4 (50 mM in water, 2 vol; final concentration in reaction 1 mM)
(§5) TCEP (50 mM in water, 2 vol; final concentration in reaction 1 mM)
(§6) TBTA (10 mM in DMSO, 1 vol; final concentration in reaction 100 µM)
(§7) The click mixture was vortexed and incubated at room temperature for 2 min before 6 μL of the mixture was added to every 100 μL of lysate. The reaction mixtures were shaken at room temperature for 1 h before being quenched with EDTA (500 mM in H2O) to a final concentration of 10 mM.
(§8) Proteins were precipitated by adding H2O (1 vol), MeOH (2 vol) and CHCl3 (0.5 vol), vortexing briefly then centrifuging at 17,000 × g for 5 min. The top H2O/MeOH layer was discarded and the middle layer of protein pellet and lower CHCl3 layer retained. The suspension was washed with MeOH (300 μL), and sonicated to break up the pellet. The proteins were pelleted by centrifugation at 10,000–17000 × g for 5–10 min or until a compact pellet was formed. The protein pellet was washed once more with MeOH (1 mL). The pellet was resuspended by sonicating and completely dissolving in 1% (w/v) SDS in PBS (to 5 mg/mL protein) before being made up to 1 mg/mL protein with PBS. […]
(§9) f) Neutravidin biotin enrichment (Affinity pull-down)
(§10) Click chemistry and precipitation steps were carried out as described in section 3.2.d, on at least 400ug of protein per sample. The pellet was resuspended by sonicating and completely dissolving in 1% (w/v) SDS in HEPES 50 mM pH 8.0, before being made up to 1 mg/mL protein with HEPES 50 mM pH 8.0 to […]
(§11) achieve a final concentration of 0.2% SDS. 20uL of each samples was collected as TL (Total lysate) samples. Pull down of biotinylated proteins was achieved by incubating samples with pre-equilibrated (3x 1 mL washes with 0.2% (w/v) SDS in HEPES 50 mM pH 8 buffer) Pierce™ NeutrAvidin™ Agarose beads for 3 hours at room temperature. NeutrAvidin™ Agarose beads were used in ratio of 1 μL bead resin per 10ug of protein sample. The beads were subsequently washed by moderate shaking for 10 seconds then briefly pelleting by table-top centrifuge then vacuum aspirating the supernatant with fine-end pipette tips (to not disturb the agarose) after collecting 20 µL supernatant as SN (supernatant […]
(§12) ) samples. […]

C21orf33 = molecular target: T2, C21orf33 (Homo sapiens, UniProt P0DPI2)
T2 construct: endogenous in cells; host or cells: HEK293T
T2 sequence (P0DPI2 42-268): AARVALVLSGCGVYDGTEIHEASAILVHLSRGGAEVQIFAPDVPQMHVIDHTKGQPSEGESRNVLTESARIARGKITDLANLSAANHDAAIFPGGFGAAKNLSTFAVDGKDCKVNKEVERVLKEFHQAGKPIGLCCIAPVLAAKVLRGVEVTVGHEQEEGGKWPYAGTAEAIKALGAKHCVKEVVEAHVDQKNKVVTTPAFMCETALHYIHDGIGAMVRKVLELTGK
Method: as §1, §2, §3, §4, §5, §6, §7, §8, §9, §10, §11, §12

DESI2 = molecular target: T3, DESI2 (Homo sapiens, UniProt Q9BSY9)
T3 construct: endogenous in cells; host or cells: HEK293T
T3 sequence (Q9BSY9 whole entry): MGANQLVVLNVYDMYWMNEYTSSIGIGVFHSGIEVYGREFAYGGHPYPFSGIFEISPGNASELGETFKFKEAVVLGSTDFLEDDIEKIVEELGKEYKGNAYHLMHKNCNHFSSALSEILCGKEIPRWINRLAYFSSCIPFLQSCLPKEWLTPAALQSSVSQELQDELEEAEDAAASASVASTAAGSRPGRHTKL
Method: as §1, §2, §3, §4, §5, §6, §7, §8, §9, §10, §11, §12

ALDH1B1 = molecular target: T4, ALDH1B1 (Homo sapiens, UniProt P30837)
T4 construct: endogenous in cells; host or cells: HEK293T
T4 sequence (P30837 18-517): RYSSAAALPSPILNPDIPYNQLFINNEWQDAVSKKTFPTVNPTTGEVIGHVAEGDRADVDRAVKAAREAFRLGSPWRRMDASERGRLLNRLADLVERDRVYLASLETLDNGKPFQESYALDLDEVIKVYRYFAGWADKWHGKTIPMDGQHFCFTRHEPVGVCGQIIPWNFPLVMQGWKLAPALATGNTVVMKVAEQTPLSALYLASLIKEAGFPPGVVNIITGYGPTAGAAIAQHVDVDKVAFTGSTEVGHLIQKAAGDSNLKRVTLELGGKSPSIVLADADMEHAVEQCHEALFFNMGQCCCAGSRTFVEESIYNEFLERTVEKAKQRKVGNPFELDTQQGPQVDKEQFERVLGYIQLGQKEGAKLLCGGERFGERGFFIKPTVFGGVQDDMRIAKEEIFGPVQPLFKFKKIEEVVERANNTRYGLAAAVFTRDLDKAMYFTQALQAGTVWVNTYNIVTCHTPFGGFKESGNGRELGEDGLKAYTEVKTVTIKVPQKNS
Method: as §1, §2, §3, §4, §5, §6, §7, §8, §9, §10, §11, §12

[1] = IMP-2586 labelling vs DMSO, 30 nM, 10 min, HEK293T (Table S4, Fig.5c)
[2] = IMP-2587 labelling vs DMSO, 30 nM, 10 min, HEK293T (Table S2, Fig.5a)
[3] = compound 1 out-competition with IMP-2587 labelling, HEK293T (Table S3, Fig.5b)
[4] = compound 3 out-competition with IMP-2586 labelling, HEK293T (Table S5, Fig.5d)

SMILES: N#CN1CC[C@@H](NC(=O)c2cc(-c3ccccc3Oc3ccc(N=[N+]=[N-])cc3)n[nH]2)C1 [IMP-2586]
Difference (log2 fold change of enrichment) (ISOC2; [1]): 3.62
Difference (log2 fold change of enrichment) (C21orf33; [1]): 3.93
Difference (log2 fold change of enrichment) (DESI2; [1]): 3.40
Difference (log2 fold change of enrichment) (ALDH1B1; [1]): 2.25

SMILES: C#Cc1cccc(-c2cc(NC(=O)CC3CCN(C#N)C3)on2)c1 (stereo not drawn) [IMP-2587]
Difference (log2 fold change of enrichment) (ISOC2; [2]): 3.87
Difference (log2 fold change of enrichment) (C21orf33; [2]): 0.92
Difference (log2 fold change of enrichment) (DESI2; [2]): 2.02
Difference (log2 fold change of enrichment) (ALDH1B1; [2]): 3.53

Difference (log2 fold change of enrichment) (ISOC2; [3]): -3.53
Difference (log2 fold change of enrichment) (DESI2; [3]): -1.75
Difference (log2 fold change of enrichment) (ALDH1B1; [3]): -3.81
SMILES: N#CN1CC[C@H](CC(=O)Nc2cc(-c3cccc(Cl)c3)no2)C1 [compound 1, reference compound]

Difference (log2 fold change of enrichment) (ISOC2; [4]): -3.08
Difference (log2 fold change of enrichment) (C21orf33; [4]): -3.65
Difference (log2 fold change of enrichment) (DESI2; [4]): -3.13
Difference (log2 fold change of enrichment) (ALDH1B1; [4]): -1.78
SMILES: N#CN1CC[C@@H](NC(=O)c2cc(-c3ccccc3Oc3ccccc3)n[nH]2)C1 [compound 3, reference compound]
